Counter-ions that a name gives are not always drawn.
What was measured:
Assay type in all cases: cell-based
wildtype Wnt pathway = assay: HEK293 Super TopFlash cellular reporter assay, Wnt-3a stimulated (wildtype Wnt pathway); conditions: Homo sapiens; HEK293 TOP reporter cells, EC50 concentration of recombinant Wnt-3a, 16 hours incubation; read-out: HEK TOP OncoFlash IC50
Outline: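 Stable HEK293 Super TopFlash and FOP reporter cells stimulated with recombinant human Wnt-3a (2500–5 ng/ml, two-fold steps). Compounds tested 50 μM to 15 nM in 3.16-fold steps in CAFTY buffer pH 7.4 with 2 mM Ca2+ and 0.01% BSA; luciferase read-out.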

[1] = test system: constitutive active colorectal cancer cell (CRC) Wnt pathway; assay: HCT116 Super TopFlash cellular reporter assay (constitutive active Wnt pathway); conditions: Homo sapiens, HCT-116, 36 h, HCT116 TOP reporter cells, luciferase expression, 36 hours incubation, 50 μM to 15 nM
Outline: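 Luciferase luminescence served as the Wnt read-out after 36 h of compound treatment at 37 °C. Compound came from a pre-dilution series (50 μM down to 15 nM, 3.16-fold steps) in CAFTY buffer. Cells were stable HCT116 TOP reporter cells, with matched FOP-vector control cells tested in parallel, seeded a day earlier.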

[2] = test system: HEK293 FOP control reporter cell line; assay: HEK293 FOP control vector reporter assay; conditions: Homo sapiens; HEK293 FOP control reporter cells, EC50 concentration of recombinant Wnt-3a, 16 hours incubation; read-out: HEK FOP IC50
Outline: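 Stable HEK293 cells carrying FOP control vector (non-functional TCF sites), 10000 cells/well plated 24 h before, stimulated with recombinant human Wnt-3a at 2500–5 ng/ml in two-fold steps. Compounds from 50 μM to 15 nM (3.16-fold) in CAFTY buffer pH 7.4 with 2 mM Ca2+, 0.01% BSA, run in parallel with TOP line; luciferase read-out.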

[3] = test system: HCT116 FOP control reporter cell line; assay: HCT116 FOP control vector reporter assay (non-functional TCF elements); conditions: Homo sapiens, HCT-116, 36 h, HCT116 FOP control reporter cells, luciferase expression, 36 hours incubation, 50 μM to 15 nM; read-out: HCT116 FOPFlash IC50
Outline: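 Stable HCT116 line carrying the non-functional FOP luciferase construct, 10000 cells/well plated 24 hrs before. Compounds 50 μM to 15 nM (3.16-fold steps) in CAFTY buffer pH 7.4 with 2 mM Ca2+, 36 hours at 37° C; luciferase luminescence read.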

Row | Compound | IC50 (wildtype Wnt pathway) [nM] | IC50 [1] [nM] | IC50 [2] [nM] | IC50 [3] [nM]
1 | COc1ccc(C(=O)Nc2ccc(-c3ccccc3)cc2)cc1NC(=O)CN1CCOCC1 [Example 1, N-(biphenyl-4-yl)-4-methoxy-3-[(morpholin-4-ylacetyl)amino]benzamide] | 3300 | 157 | ≥ 50000 | ≥ 50000
2 | Nc1ccc(-c2ccc(C(=O)Nc3ccc(OC(F)(F)F)c(NC(=O)CN4CCOCC4)c3)cc2)cc1 [Example 76, 4′-amino-N-{3-[(morpholin-4-ylacetyl)amino]-4-(trifluoromethoxy)phenyl}biphenyl-4-carboxamide] | 39 | 487 | 11000 | ≥ 50000
3 | COc1ccc(NC(=O)c2ccc(-c3ccccc3)cc2)cc1NC(=O)C(C)N1CCOCC1 (stereo not shown) [Example 53, N-(4-methoxy-3-{[2-(morpholin-4-yl)propanoyl]amino}phenyl)biphenyl-4-carboxamide] | 290 | 480 | 6200 | ≥ 50000
4 | CC(C)Oc1ccc(C(=O)Nc2ccc(-c3ccccc3)cc2)cc1NC(=O)CN1CCOCC1 [Example 25, N-(biphenyl-4-yl)-4-isopropoxy-3-[(morpholin-4-ylacetyl)amino]benzamide] | 120 | 43.7 | ≥ 50000 | ≥ 50000
5 | COC(=O)c1ccc(C(=O)Nc2ccc(-c3ccccc3)cc2)cc1NC(=O)CN1CCOCC1 [Example 12, methyl 4-(biphenyl-4-ylcarbamoyl)-2-[(morpholin-4-ylacetyl)amino]benzoate] | 440 | 40 | ≥ 50000 | ≥ 50000
6 | O=C(CN1CCOCC1)Nc1cc(C(=O)Nc2ccc(-c3ccccc3)cc2)ccc1-c1ccco1 [Example 20, N-(biphenyl-4-yl)-4-(2-furyl)-3-[(morpholin-4-ylacetyl)amino]benzamide] | 120 | 62.5 | ≥ 50000 | ≥ 50000
7 | COCc1ccc(C(=O)Nc2ccc(-c3ccccc3)cc2)cc1NC(=O)C1(N2CCN(C)CC2)CC1 [Example 96, N-(biphenyl-4-yl)-4-(methoxymethyl)-3-({[1-(4-methylpiperazin-1-yl)cyclopropyl]carbonyl}amino)benzamide hydrochloride (1:1)] | 40 | 34.5 | 9600 | 8250
8 | CC(C(=O)Nc1cc(NC(=O)c2ccc(-c3ccccc3)cc2)ccc1OC(F)(F)F)N1CCOCC1 (stereo not shown) [Example 61, N-[3-{[2-(morpholin-4-yl)propanoyl]amino}-4-(trifluoromethoxy)phenyl]biphenyl-4-carboxamide] | 140 | 130 | ≥ 50000 | ≥ 50000
9 | CC(C)(C(=O)Nc1cc(C(=O)Nc2ccc(-c3ccccc3)cc2)ccc1C(F)(F)F)N1CCOCC1 [Example 17, N-(biphenyl-4-yl)-3-{[2-methyl-2-(morpholin-4-yl)propanoyl]amino}-4-(trifluoromethyl)benzamide] | 290 | 240 | 33000 | ≥ 50000
10 | CCOc1ccc(NC(=O)c2ccc(-c3ccccc3)cc2)cc1NC(=O)CN1CCOCC1 [Example 85, N-{4-ethoxy-3-[(morpholin-4-ylacetyl)amino]phenyl}biphenyl-4-carboxamide] | 830 | 99.7 | ≥ 50000 | ≥ 50000
11 | COc1ccc(C(=O)Nc2ccc(-c3ccccc3)cc2)cc1NC(=O)CN1C[C@@H]2C[C@H]1CO2 [Example 7, N-(biphenyl-4-yl)-4-methoxy-3-{[(1S,4S)-2-oxa-5-azabicyclo[2.2.1]hept-5-ylacetyl]amino}benzamide] | 820 | 963 | 10000 | ≥ 50000
12 | O=C(CN1CCOCC1)Nc1cc(C(=O)Nc2ccc(-c3ccccc3)cc2)ccc1OC(F)(F)F [Example 23, N-(biphenyl-4-yl)-3-[(morpholin-4-ylacetyl)amino]-4-(trifluoromethoxy)benzamide] | 38 | 32 | ≥ 50000 | ≥ 50000
13 | O=C(CN1CCOCC1)Nc1cc(C(=O)Nc2ccc(-c3ccccc3)cc2)ccc1C(F)(F)F [Example 9, N-(biphenyl-4-yl)-3-[(morpholin-4-ylacetyl)amino]-4-(trifluoromethyl)benzamide] | 120 | 40 | ≥ 50000 | ≥ 50000
